For the assay, the system named is human trabecular meshwork cell line (TM-1 cells). Nature of the assay: Test for evaluation of effect of morphological change on trabecular meshwork cells (cell shape index, CSI). It is filed as cell-based. The conditions noted are these: final concentration 10 μM, incubation 24 hours, CSI=4π×(Cell Area)/(Cell Perimeter)^2, average per group, Control 0.730. The protocol:
1. Test for Evaluation of Effect of Morphological Change on Trabecular Meshwork Cells
As a method for evaluating a cellular morphological change, an evaluation system using the cell shape index (hereinafter referred to as “CSI”) as an index has been reported in The Journal of Clinical Investigation, 103, 1141-1150 (1999). Therefore, according to the method described in the above document, an effect of morphological change of the present compounds on trabecular meshwork cells was evaluated.
A human trabecular meshwork cell line (hereinafter referred to as “TM-1 cells”) reported in Investigative Opthalmology & Visual Science, 43, 151-161 (2002) was used.
Culture medium 1: A reagent was prepared by adding fetal bovine serum (10%), L-glutamine (2 mM), amphotericin B (2.5 μg/mL), and gentamicin (25 μg/mL) to Dulbecco's modified Eagle medium (hereinafter referred to as “D-MEM”).
Culture medium 2: Fetal bovine serum (3%), L-glutamine (2 mM), amphotericin B (2.5 μg/mL), and gentamicin (25 μg/mL) were added to D-MEM.
Cell staining liquid: A mixed liquid of Calcein-AM (16 μM) and Hoechst 33342 (40 μM) was prepared by diluting a Calcein-AM solution (cytoplasmic staining reagent, manufactured by Dojindo Laboratories) and a Hoechst 33342 solution (nuclear staining reagent, manufactured by Dojindo Laboratories) with D-MEM containing L-glutamine (2 mM), amphotericin B (2.5 μg/mL), and gentamicin (25 μg/mL).
TM-1 cells subcultured at 37° C. in a 8% carbon dioxide gas atmosphere were treated with a trypsin/EDTA solution (0.05% trypsin and 0.53 mM tetrasodium ethylenediaminetetraacetate) at 24 hours before performing a drug treatment mentioned below and seeded on a 96-well culture plate. The culture medium 1 was used for the subculture of the cells. The culture medium 2 was used for the cell culture after seeding the cells on the plate.
A test compound was dissolved in dimethyl sulfoxide, whereby a 5 mM solution was prepared. Then, the resulting solution was diluted with the culture medium 2, whereby a 200 μM test compound solution was prepared.
It has been reported that Y-27632 which is a Rho kinase inhibitor induces a morphological change in trabecular meshwork cells in Investigative Ophthalmology & Visual Science, 42, 137-144 (2001). Therefore, Y-27632 (produced according to the method described in WO 90/05723) was used as a positive control, and dissolved in dimethyl sulfoxide in the same manner as the test compound, whereby a 5 mM solution was prepared, and then, the resulting solution was diluted with the culture medium 2, whereby a 200 μM positive control compound solution was prepared.
1) To a 96-well culture plate, a solution of TM-1 cells adjusted to a cell density of […] was added in an amount of 95 μL (1.5×10^4 cells) per well.
2) Incubation was performed at 37° C. in a 8% carbon dioxide gas atmosphere for 24 hours.
3) The test compound solution or positive control compound solution was added in an amount of 5 μL per well (the final concentration of the test compound or positive control compound was 10 μM). As a control, the culture medium 2 containing dimethyl sulfoxide (4%) was added in an amount of 5 μL per well.
4) Incubation was performed at 37° C. in a 8% carbon dioxide gas atmosphere for 24 hours.
5) The cell staining liquid was added in an amount of 10 μL per well.
6) Incubation was performed at 37° C. in a 8% carbon dioxide gas atmosphere for 1 hour to stain the cells.
7) A 37% formaldehyde solution was added in an amount of 10 μL per well.
8) Incubation was performed at room temperature for 1 hour to fix the cells.
9) Washing with phosphate-buffered saline was performed.
10) Using Array Scan Vti HCS reader (manufactured by Cellomics), images of stained cells magnified with a 20 times objective lens were captured in 80 fields (10 fields×8 wells) per test compound addition group.
11) CSI was calculated for each cell and an average value was obtained for each test compound addition group. […]
For `CN(C)CCN(Cc1ccc(C(=O)Nc2ccccc2N)cc1)C(=O)Nc1ccccc1` [Compound 1-2, N-(2-Aminophenyl)-4-[1-(2-dimethylaminoerthyl)-3-phenyl-ureidomethyl]benzamide], the CSI came out at 0.599.
The result for `CN(C)CCN(Cc1ccc(C(=O)Nc2ccccc2N)cc1)C(=O)NCCc1ccccc1` [Compound 1-4, N-(2-Aminophenyl)-4-[1-(2-dimethylaminoethyl)-3-phenethylureidomethyl]benz-amide] reads 0.545.
The result for `CN(C)CCN(Cc1ccc(C(=O)Nc2ccccc2N)cc1)C(=O)NCc1ccccc1` [Compound 1-5, N-(2-Aminophenyl)-4-[3-benzyl-1-(2-dimethylaminoethyl)ureidomethyl]benzamide] reads 0.636; that for `Nc1ccccc1NC(=O)c1ccc(CN(CC(O)CO)C(=O)Nc2ccc3c(c2)CCC3)cc1` (centres unmarked) [Compound 1-16, N-(2-Aminophenyl)-4-[1-(2,3-dihydroxypropyl)-3-(indan-5-yl)ureidomethyl]benz-amide], 0.616.
The result for `CNCCN(Cc1ccc(C(=O)Nc2ccccc2N)cc1)C(=O)NC1CCCC1` [Compound 1-22, N-(2-Aminophenyl)-4-[3-cyclo-pentyl-1-(2-methylamino-ethyl)ureidomethyl]benz-amide] reads 0.619; that for `CNCCN(Cc1ccc(C(=O)Nc2ccccc2N)cc1)C(=O)Nc1ccc2c(c1)OCCO2` [Compound 1-23, N-(2-Aminophenyl)-4-[3-(2,3-dihydrobenzo[1,4]dioxin-6-yl)-1-(2-methylamino-ethyl)ureidomethyl]benzamide], 0.534.
In turn, `CN(C)CCCN(Cc1ccc(C(=O)Nc2ccccc2N)cc1)C(=O)NCCc1ccccc1` [Compound 1-28, N-(2-Aminophenyl)-4-[1-(3-dimethylaminopropyl)-3-phenylethylureidomethyl]benz-amide] had a CSI of 0.514.
In turn, `CN(C)c1ccc(NC(=O)N(CCCN2CCOCC2)Cc2ccc(C(=O)Nc3ccccc3N)cc2)cc1` [Compound 1-31, N-(2-Aminophenyl)-4-[3-(4-dimethylaminophenyl)-1-[3-(morpholin-4-yl)propyl]ureidomethyl]benzamide] displayed a CSI of 0.632.
In turn, `Nc1ccccc1NC(=O)c1ccc(CN(CC2CCNCC2)C(=O)Nc2ccc(Cl)cc2)cc1` [Compound 1-34, N-(2-Aminophenyl)-4-[3-(4-chlorophenyl)-1-(piperidin-4-ylmethyl)ureidomethyl] benzamide] gave a CSI of 0.681.
The result for `COc1ccc(NC(=O)N(Cc2ccc(C(=O)Nc3ccccc3N)cc2)CC(C)(C)CN(C)C)cc1OC` [Compound 1-36, N-(2-Aminophenyl)-4-[3-(3,4-dimethoxyphenyl)-1-(3-dimethylamino-2,2-dimethyl-propyl)ureidomethyl]benzamide] reads 0.539; that for `CN(C)CC(C)(C)CN(Cc1ccc(C(=O)Nc2ccccc2N)cc1)C(=O)Nc1ccc(CC#N)cc1` [Compound 1-38, N-(2-Aminophenyl)-4-[3-(4-cyanomethylphenyl)-1-(3-dimethylamino-2,2-dimethyl-propyl)ureidomethyl]benz-amide], 0.616; that for `NCCCN(Cc1ccc(C(=O)Nc2ccccc2N)cc1)C(=O)Nc1ccc2c(c1)OCCO2` [Compound 1-39, N-(2-Aminophenyl)-4-[1-(3-aminopropyl)-3-(2,3-di-hydrobenzo[1,4]dioxin-6-yl)ureidomethyl]benzamide], 0.615.
The result for `CN(C)c1ccc(NC(=O)N(CCCN2CCCC2=O)Cc2ccc(C(=O)Nc3ccccc3N)cc2)cc1` [Compound 1-43, N-(2-Aminophenyl)-4-[3-(4-dimethylaminophenyl)-1-[3-(pyrrolidin-2-on-1-yl)propyl]ureidomethyl]benzamide] reads 0.679; that for `COC(=O)c1ccc(NC(=O)N(CCCN(C)C)Cc2ccc(C(=O)Nc3ccccc3N)cc2)cc1` [Compound 1-46, N-(2-aminophenyl)-4-[1-(3-dimethylaminopropyl)-3-(4-methoxycarbonylphenyl)ureidomethyl]benzamide], 0.581.

The values are drawn from patent US8076332B2, “N- (2-aminophenyl) benzamide derivative having urea structure” (Santen Pharmaceutical Co., Ltd., priority 2006, dated 2011).
